Assays:
[1] = target: T1, PI3Kα H1047R in T47D cells (Homo sapiens, UniProt P42336, H1047R); test: PI3Kα cellular assay: T47D pAKT S473 HTRF; format: cell-based; details: for T47D pAKT S473 HTRF IC50 (H1047R): T47D (H1047R) selectivity over SKBR3 (WT): T47D (H1047R) versus SKBR3 (WT) cells; for IC50: T47D cells (H1047R), serum starved, 1 hr compound, 20 ng/ml EGF 10 min
T1 construct: endogenous in cells; host or cells: T47D
Procedure: PI3Kα cellular assay experimental procedure: SKBR3 or T47D cells are seeded in DMEM containing 10% FBS at 25 k cells/well into 96-well cell culture format. Cells are incubated overnight at 37° C. in a 5% CO2 incubator and the following day cell media is aspirated, adherent cells are washed 1× with room temperature PBS prior to serum-free media application. Cells are returned to 37° C. 5% CO2 incubator and incubated a further 16 hrs. Compounds are added to serum starved adherent cells with a top dose of 10,000 nM and 3× multiple dose reductions for a minimum dose of 0.5 nM diluted in DMSO. Cell/compound incubation continues for 1 hr in a 37° C., 5% CO2 incubator prior to 10 minute PIK3CA stimulation with 20 ng/ml EGF. Cells treated with 0.1% DMSO and 20 ng/mL EGF are employed as negative control, cells treated with 10 uM Alpelisib and 20 ng/mL EGF are employed as a positive control. After 10 mins, plates are removed from incubator and cells are lysed with buffer and shaking 45 minutes. 20 μL of lysate is transferred to an opti-384 plate and 2.5 μl of Phospho-AKT d2 antibody with 2.5 μl of Phospho-AKT Eu Cryptate solution in the detection buffer are added to each well. 384 well plate is left overnight at room temperature before reading HTRF on an Envision plate reader.

PI3K H1047R = PI3K H1047R (Homo sapiens, UniProt P42336, H1047R); test: PI3K H1047R ADP-Glo (PI/PS); format: biochemical; set-up: PI3K H1047R ADP-Glo (PI/PS) IC50: H1047R Selectivity: reference not given here; details: for IC50: PI/PS substrate
Sequence of PI3K H1047R (P42336 whole entry H1047R): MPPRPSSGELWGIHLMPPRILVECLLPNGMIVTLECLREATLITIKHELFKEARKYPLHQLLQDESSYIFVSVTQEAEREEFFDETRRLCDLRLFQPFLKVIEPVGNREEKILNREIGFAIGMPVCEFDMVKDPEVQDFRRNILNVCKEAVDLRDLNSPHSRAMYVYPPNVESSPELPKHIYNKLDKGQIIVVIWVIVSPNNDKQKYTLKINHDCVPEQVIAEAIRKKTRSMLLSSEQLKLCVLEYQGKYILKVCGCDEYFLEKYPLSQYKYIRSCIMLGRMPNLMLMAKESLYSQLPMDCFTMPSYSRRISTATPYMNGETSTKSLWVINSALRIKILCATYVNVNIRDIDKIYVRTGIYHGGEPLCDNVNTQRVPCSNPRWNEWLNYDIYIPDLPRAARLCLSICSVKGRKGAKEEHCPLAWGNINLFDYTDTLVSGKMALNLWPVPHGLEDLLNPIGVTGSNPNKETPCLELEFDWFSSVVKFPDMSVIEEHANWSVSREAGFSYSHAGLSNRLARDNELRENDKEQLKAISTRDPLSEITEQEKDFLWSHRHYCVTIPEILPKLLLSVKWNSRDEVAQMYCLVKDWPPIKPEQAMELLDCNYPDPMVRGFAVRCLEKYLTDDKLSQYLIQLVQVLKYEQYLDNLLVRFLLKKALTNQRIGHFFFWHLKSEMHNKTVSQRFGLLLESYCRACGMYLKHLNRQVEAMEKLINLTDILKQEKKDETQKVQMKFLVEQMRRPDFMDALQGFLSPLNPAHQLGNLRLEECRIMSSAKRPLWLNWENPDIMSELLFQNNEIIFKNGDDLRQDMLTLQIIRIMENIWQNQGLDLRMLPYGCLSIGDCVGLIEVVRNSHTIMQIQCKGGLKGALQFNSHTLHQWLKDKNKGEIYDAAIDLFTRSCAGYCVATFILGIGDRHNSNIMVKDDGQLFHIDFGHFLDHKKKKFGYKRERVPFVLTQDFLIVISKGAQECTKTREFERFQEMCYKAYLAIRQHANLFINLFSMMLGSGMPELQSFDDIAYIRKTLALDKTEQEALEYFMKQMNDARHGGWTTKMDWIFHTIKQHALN
Sequence of PI3K H1047R (P27986 whole entry partner): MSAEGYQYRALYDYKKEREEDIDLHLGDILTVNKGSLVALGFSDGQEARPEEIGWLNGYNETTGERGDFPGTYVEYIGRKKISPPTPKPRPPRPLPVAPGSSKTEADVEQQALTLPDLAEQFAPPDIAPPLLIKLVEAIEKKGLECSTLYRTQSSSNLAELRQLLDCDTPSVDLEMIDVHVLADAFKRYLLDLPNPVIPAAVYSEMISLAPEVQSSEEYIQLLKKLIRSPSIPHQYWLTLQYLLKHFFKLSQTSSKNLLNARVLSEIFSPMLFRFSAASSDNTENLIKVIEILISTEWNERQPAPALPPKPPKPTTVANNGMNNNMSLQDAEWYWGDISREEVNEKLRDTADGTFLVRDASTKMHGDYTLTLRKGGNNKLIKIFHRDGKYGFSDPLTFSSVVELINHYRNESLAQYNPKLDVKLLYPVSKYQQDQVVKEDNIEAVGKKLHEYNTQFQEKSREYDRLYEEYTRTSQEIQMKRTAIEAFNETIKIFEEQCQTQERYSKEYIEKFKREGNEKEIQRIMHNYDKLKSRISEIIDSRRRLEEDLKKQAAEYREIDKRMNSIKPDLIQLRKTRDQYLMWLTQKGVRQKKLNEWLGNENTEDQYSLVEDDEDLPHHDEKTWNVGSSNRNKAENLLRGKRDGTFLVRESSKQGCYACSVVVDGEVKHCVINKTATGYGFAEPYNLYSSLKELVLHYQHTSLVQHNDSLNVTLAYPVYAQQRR

T1 sequence (P42336 whole entry H1047R): as the sequence (P42336 whole entry H1047R) above
T1 sequence (P27986 whole entry partner): as the sequence (P27986 whole entry partner) above

Structure (SMILES)	T47D pAKT S473 HTRF IC50 (H1047R): T47D (H1047R) selectivity over SKBR3 (WT) [1]	IC50 [1]	PI3K H1047R ADP-Glo (PI/PS) IC50: H1047R Selectivity (PI3K H1047R)	IC50 (PI3K H1047R)
Cc1cc(C(C)Nc2ccccc2C(=O)O)c2nc(-c3cc(C)c4oc(=O)[nH]c4c3)ncc2c1 (centres unmarked) [Compound 5]	B (B denotes 20-fold≥value>5-fold)	0.75 to 2 µM	–	≥ 10 µM
Cc1cc([C@@H](C)Nc2ccccc2C(=O)O)c2nc(N3CCC(C)(C)CC3)ncc2c1 [Compound 8]	A (A denotes >20-fold)	< 0.75 µM	B (B denotes 20-fold≥value>5-fold)	< 1 µM
Cc1cc(C(C)Nc2ccccc2C(=O)O)c2nc(N3CCC(C)(C)CC3)ncc2c1 (centres unmarked) [Compound 10]	A (A denotes >20-fold)	< 0.75 µM	A (A denotes >20-fold)	< 1 µM
Cc1cc(C(C)Nc2ccccc2C(=O)O)c2[nH]c(N3CCOCC3)nc(=O)c2c1 (centres unmarked) [Compound 19]	B (B denotes 20-fold≥value>5-fold)	0.75 to 2 µM	B (B denotes 20-fold≥value>5-fold)	1 to 10 µM
Cc1cc(C(C)Nc2ccccc2C(=O)O)c2nc(N3CCC(C)(C)CC3)nc(C#N)c2c1 (centres unmarked) [Compound 26, 2-((1-(4-cyano-2-(4,4-dimethylpiperidin-1-yl)-6-methylquinazolin-8-yl)ethyl)amino)benzoic acid]	C (C denotes ≤5-fold)	≥ 2 µM	C (C denotes ≤5-fold)	≥ 10 µM
Cc1cc(C(C)Nc2ccccc2C(=O)O)c2cc(N3CCOCC3)ncc2c1 (centres unmarked) [Compound 37]	A (A denotes >20-fold)	< 0.75 µM	A (A denotes >20-fold)	< 1 µM
Cc1cc([C@@H](C)Nc2ccccc2C(=O)O)c2cc(N3CCOCC3)ncc2c1 [Compound 57]	A (A denotes >20-fold)	< 0.75 µM	A (A denotes >20-fold)	< 1 µM
Cc1cc([C@H](C)Nc2ccccc2C(=O)O)c2cc(N3CCOCC3)ncc2c1 [Compound 58]	C (C denotes ≤5-fold)	≥ 2 µM	–	≥ 10 µM
Cc1cc([C@H](C)Nc2ccccc2C(=O)O)c2nc(N3CCC(C)(C)CC3)nc(C#N)c2c1 [Compound 60]	C (C denotes ≤5-fold)	≥ 2 µM	–	≥ 10 µM
Cc1cc(C(C)Nc2ccccc2C(=O)O)c2cc(-c3ccnc(C4CC4)c3)nc(C(N)=O)c2c1 (centres unmarked) [Compound 73]	A (A denotes >20-fold)	< 0.75 µM	A (A denotes >20-fold)	< 1 µM
Cc1cc(C(C)Nc2ccccc2C(=O)O)c2cc(OC3CCOCC3)ncc2c1 (centres unmarked) [Compound 74]	A (A denotes >20-fold)	< 0.75 µM	A (A denotes >20-fold)	< 1 µM
Cc1cc([C@H](C)Nc2ccccc2C(=O)O)c2nc(N3Cc4ccccc4C3)nc(N3CC(O)C3)c2c1 [Compound 144]	B (B denotes 20-fold≥value>5-fold)	0.75 to 2 µM	–	–
Cc1cc([C@@H](C)Nc2ccccc2C(=O)O)c2nc(N3Cc4ccccc4C3)nc(OC3COC3)c2c1 [Compound 146]	A (A denotes >20-fold)	< 0.75 µM	–	–
CCOc1nc(N2Cc3ccccc3C2)nc2c([C@@H](C)Nc3ccccc3C(=O)O)cc(C)cc12 [Compound 147]	C (C denotes ≤5-fold)	≥ 2 µM	–	–

Results, then the compound that gave them:

T47D pAKT S473 HTRF IC50 (H1047R): T47D (H1047R) selectivity over SKBR3 (WT) [1]	IC50 [1]	PI3K H1047R ADP-Glo (PI/PS) IC50: H1047R Selectivity (PI3K H1047R)	IC50 (PI3K H1047R)	Structure (SMILES)
A (A denotes >20-fold)	< 0.75 µM	A (A denotes >20-fold)	< 1 µM	Cc1cc([C@@H](C)Nc2ccccc2C(=O)O)c2nc(-c3ccc(F)cc3)n(C)c(=O)c2c1 (single isomer, unassigned) [Compound 32]
A (A denotes >20-fold)	< 0.75 µM	B (B denotes 20-fold≥value>5-fold)	< 1 µM	Cc1cc([C@H](C)Nc2ccccc2C(=O)O)c2nc(-c3ccc4c(c3)c(C)nn4C)n(C)c(=O)c2c1 (single isomer, unassigned) [Compound 33]
A (A denotes >20-fold)	< 0.75 µM	A (A denotes >20-fold)	< 1 µM	Cc1cc(C(C)Nc2ccccc2C(=O)O)c2nc(-c3ccc(F)cc3)n(C)c(=O)c2c1 (centres unmarked) [Compound 38]
A (A denotes >20-fold)	< 0.75 µM	A (A denotes >20-fold)	< 1 µM	Cc1cc(C(C)Nc2ccccc2C(=O)O)c2nc(-c3ccc4c(c3)c(C)nn4C)n(C)c(=O)c2c1 (centres unmarked) [Compound 40]
C (C denotes ≤5-fold)	≥ 2 µM	–	≥ 10 µM	Cc1cc([C@@H](C)Nc2ccccc2C(=O)O)c2nc(-c3ccc4c(c3)c(C)nn4C)n(C)c(=O)c2c1 [Compound 41]
A (A denotes >20-fold)	< 0.75 µM	A (A denotes >20-fold)	< 1 µM	Cc1cc(C(C)Nc2ccccc2C(=O)O)c2cc(N3Cc4ccccc4C3)nc(O)c2c1 (centres unmarked) [Compound 51]
B (B denotes 20-fold≥value>5-fold)	0.75 to 2 µM	–	≥ 10 µM	Cc1cc([C@H](C)Nc2ccccc2C(=O)O)c2cc(-c3ccc(F)cc3)n(C)c(=O)c2c1 [Compound 75]
A (A denotes >20-fold)	< 0.75 µM	A (A denotes >20-fold)	< 1 µM	Cc1cc([C@@H](C)Nc2ccccc2C(=O)O)c2cc(-c3ccc(F)cc3)n(C)c(=O)c2c1 [Compound 76]
A (A denotes >20-fold)	< 0.75 µM	A (A denotes >20-fold)	< 1 µM	Cc1cc(C(C)Nc2ccccc2C(=O)O)c2cc(-c3ccc(F)cc3)n(C)c(=O)c2c1 (centres unmarked) [Compound 77]
A (A denotes >20-fold)	< 0.75 µM	A (A denotes >20-fold)	< 1 µM	Cc1cc([C@H](C)Nc2ccccc2C(=O)O)c2cc(-c3ccnc(C4CC4)c3)n(C)c(=O)c2c1 [Compound 78]
C (C denotes ≤5-fold)	≥ 2 µM	–	≥ 10 µM	Cc1cc([C@@H](C)Nc2ccccc2C(=O)O)c2cc(-c3ccnc(C4CC4)c3)n(C)c(=O)c2c1 [Compound 79]
C (C denotes ≤5-fold)	≥ 2 µM	–	≥ 10 µM	Cc1cc([C@H](C)Nc2ccccc2C(=O)O)c2cc(N3Cc4ccccc4C3)ncc2c1 [Compound 80]
A (A denotes >20-fold)	< 0.75 µM	A (A denotes >20-fold)	< 1 µM	Cc1cc([C@@H](C)Nc2ccccc2C(=O)O)c2cc(N3Cc4ccccc4C3)ncc2c1 [Compound 81]
A (A denotes >20-fold)	< 0.75 µM	A (A denotes >20-fold)	< 1 µM	Cc1cc(C(C)Nc2ccccc2C(=O)O)c2cc(-c3ccnc(C4CC4)c3)n(C)c(=O)c2c1 (centres unmarked) [Compound 82]
C (C denotes ≤5-fold)	≥ 2 µM	C (C denotes ≤5-fold)	≥ 10 µM	Cc1cc([C@H](C)Nc2ccccc2C(=O)O)c2cc(-c3ccc4c(c3)c(C)nn4C)ncc2c1 [Compound 83]
A (A denotes >20-fold)	< 0.75 µM	A (A denotes >20-fold)	< 1 µM	Cc1cc([C@@H](C)Nc2ccccc2C(=O)O)c2cc(-c3ccc4c(c3)c(C)nn4C)ncc2c1 [Compound 84]
B (B denotes 20-fold≥value>5-fold)	≥ 2 µM	C (C denotes ≤5-fold)	1 to 10 µM	Cc1cc([C@H](C)Nc2ccccc2C(=O)O)c2cc(-c3ccc4c(c3)c(C)nn4C)n(C)c(=O)c2c1 [Compound 85]
B (B denotes 20-fold≥value>5-fold)	< 0.75 µM	–	–	Cc1cc([C@@H](C)Nc2ccccc2C(=O)O)c2nc(-c3ccnc(C4CC4)c3)n(C)c(=O)c2c1 [Compound 145]

— patent publication US20260130925A1, “METHODS FOR TREATING CANCER” (Genesis Molecular AI, Inc., priority 2022, published 2026)
